In patent US8889682B2, “Inhibitors of bruton'S tyrosine kinase” (Hoffmann-La Roche Inc., priority 2011, dated 2014) one finds IC50 data, which are given here for nine compounds.

For the assay, the system named is B cell receptor-mediated activation of B cells in human blood (CD69 expression). The experiment in a line: Inhibition of B cell activation in whole blood measured by CD69 expression. The format is cell-based. The note with it: anti-IgM stimulation, 20 hours, CD69-positive cells that are also CD20-positive, read-out: HWB IC50. The method, then:
Inhibition of B Cell Activation in Whole Blood Measured by CD69 Expression
A procedure to test the ability of Btk inhibitors to suppress B cell receptor-mediated activation of B cells in human blood is as follows:
Human whole blood (HWB) is obtained from healthy volunteers, with the following restrictions: 24 hr drug-free, non-smokers. Blood is collected by venipuncture into Vacutainer tubes anticoagulated with sodium heparin. Test compounds are diluted to ten times the desired starting drug concentration in PBS […], followed by three-fold serial dilutions in 10% DMSO in PBS to produce a nine point dose-response curve. […] HWB (100 μl) is added to each well, and after mixing the plates are incubated at 37 C, 5% CO2, 100% humidity for 30 minutes.
Included are induced control, unstained and single stains for compensation adjustments and initial voltage settings. […] Supernatants are removed via suction and the remaining pellets are lysed again with another 1 ml of 1× Pharmingen Lyse Buffer, and plates are spun down as before. Supernatants are aspirated and remaining pellets are washed in FACs buffer (PBS+1% FBS). […] Samples are transferred to a 96 well plate suitable to be run on the HTS 96 well system on the BD LSR II flow cytometer.
Using appropriate excitation and emission wavelengths for the fluorophores used, data are acquired and percent positive cell values are obtained using Cell Quest Software. Results are initially analyzed by FACS analysis software (Flow Jo).
For `CN1CCC(c2ccc(Nc3cc(-c4ccnc(-n5ncc6cc(C(C)(C)C)cc(F)c6c5=O)c4CO)nn(C)c3=O)nc2)CC1` [Compound I-1, 6-tert-Butyl-8-fluoro-2-{3-hydroxymethyl-4-[1-methyl-5-(1′-methyl-1′,2′,3′,4′,5′,6′-hexahydro-[3,4′]bipyridinyl-6-ylamino)-6-oxo-1,6-dihydro-pyridazin-3-yl]-pyridin-2-yl}-2H-phthalazin-1-one], the IC50 came to 11 nM.

In the case of `CN1CCC[C@H]1c1ccc(Nc2cc(-c3ccnc(-n4ncc5cc(C(C)(C)C)cc(F)c5c4=O)c3CO)nn(C)c2=O)nc1` [Compound I-2, 6-tert-Butyl-8-fluoro-2-(3-hydroxymethyl-4-{1-methyl-5-[5-((S)-1-methyl-pyrrolidin-2-yl)-pyridin-2-ylamino]-6-oxo-1,6-dihydro-pyridazin-3-yl}-pyridin-2-yl)-2H-phthalazin-1-one], the IC50 was 5 nM. Take `Cn1nc(-c2ccnc(-n3ncc4cc(C(C)(C)C)cc(F)c4c3=O)c2CO)cc(Nc2ccc(C(=O)N3CCOCC3)cn2)c1=O` [Compound I-3, 6-tert-Butyl-8-fluoro-2-(3-hydroxymethyl-4-{1-methyl-5-[5-(morpholine-4-carbonyl)-pyridin-2-ylamino]-6-oxo-1,6-dihydro-pyridazin-3-yl}-pyridin-2-yl)-2H-phthalazin-1-one]: the IC50 was determined as 14 nM.

Regarding `Cn1nc(-c2ccnc(-n3ncc4cc(C(C)(C)C)cc(F)c4c3=O)c2CO)cc(Nc2ccc(S(C)(=O)=O)cn2)c1=O` [Compound I-4, 6-tert-Butyl-8-fluoro-2-{3-hydroxymethyl-4-[5-(5-methanesulfonyl-pyridin-2-ylamino)-1-methyl-6-oxo-1,6-dihydro-pyridazin-3-yl]-pyridin-2-yl}-2H-phthalazin-1-one], the IC50 was found to be 95 nM. Next, `CN(C)C(=O)c1ccc(Nc2cc(-c3ccnc(-n4ncc5cc(C(C)(C)C)cc(F)c5c4=O)c3CO)nn(C)c2=O)nc1` [Compound I-5, 6-{6-[2-(6-tert-Butyl-8-fluoro-1-oxo-1H-phthalazin-2-yl)-3-hydroxymethyl-pyridin-4-yl]-2-methyl-3-oxo-2,3-dihydro-pyridazin-4-ylamino}-N,N-dimethyl-nicotinamide]: 30 nM; `CN(C)C(=O)c1ccc(Nc2cc(-c3ccnc(-n4ccc5cc(C6CC6)cc(F)c5c4=O)c3CO)nn(C)c2=O)nc1` [Compound I-6, 6-{6-[2-(6-Cyclopropyl-8-fluoro-1-oxo-1H-isoquinolin-2-yl)-3-hydroxymethyl-pyridin-4-yl]-2-methyl-3-oxo-2,3-dihydro-pyridazin-4-ylamino}-N,N-dimethyl-nicotinamide]: 77 nM; `Cn1nc(-c2ccnc(-n3ncc4cc(C(C)(C)C)ccc4c3=O)c2CO)cc(Nc2ccc(C(=O)N3CCOCC3)cn2)c1=O` [Compound I-7, 6-tert-Butyl-2-(3-hydroxymethyl-4-{1-methyl-5-[5-(morpholine-4-carbonyl)-pyridin-2-ylamino]-6-oxo-1,6-dihydro-pyridazin-3-yl}-pyridin-2-yl)-2H-phthalazin-1-one]: 101 nM. In the case of `Cn1cc(-c2ccnc(-n3ncc4cc(C(C)(C)C)cc(F)c4c3=O)c2CO)cc(Nc2ccc(C(=O)N3CCOCC3)cn2)c1=O` [Compound I-8, 2′-(6-tert-Butyl-8-fluoro-1-oxo-1H-phthalazin-2-yl)-3′-hydroxymethyl-1-methyl-5-[5-(morpholine-4-carbonyl)-pyridin-2-ylamino]-1H-[3,4′]bipyridinyl-6-one], the IC50 came out at 27 nM. Next, `CN(C)C(=O)c1ccc(Nc2cc(-c3ccnc(-n4ncc5cc(C(C)(C)C)cc(F)c5c4=O)c3CO)cn(C)c2=O)nc1` [Compound I-10, 6-[2′-(6-tert-Butyl-8-fluoro-1-oxo-1H-phthalazin-2-yl)-3′-hydroxymethyl-1-methyl-6-oxo-1,6-dihydro-[3,4′]bipyridinyl-5-ylamino]-N,N-dimethyl-nicotinamide]: 9 nM.
